Data from PubChem BioAssay AID1259411 (Chemical Carcinogenesis Research Information System (CCRIS), 2018).
Activity calls are given as the source filed them. No rule for the calls is given here.

System: rodent carcinogenicity bioassays, tumor incidence
Assay: CCRIS carcinogenicity studies
Outline: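 Archive of carcinogenicity, mutagenicity, tumor promotion and tumor inhibition results drawn from journals, NCI reports and other sources, expert-reviewed; covers 1985-2011 and is no longer updated.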

## O=C(O)/C=C/c1ccc(O)c(O)c1
Species: MOUSE, Strain/Sex: B6C3F1/FEMALE, Route: ORAL, Dose: 0, 2% IN DIET FOR 96 WK (STUDY DURATION: 96 WK), Tumor Site: Type of Lesion: KIDNEY (TUBULAR CELL): ADENOMA
  carcinogen call: active; positive
Species: MOUSE, Strain/Sex: B6C3F1/FEMALE, Route: ORAL, Dose: 0, 2% IN POWDERED BASAL DIET FOR 96 WK (STUDY DURATION: 96 WK)
  carcinogen call: inactive; negative
Species: MOUSE, Strain/Sex: B6C3F1/MALE, Route: ORAL, Dose: 0, 2% IN DIET FOR 96 WK (STUDY DURATION: 96 WK), Tumor Site: Type of Lesion: LUNG (ALVEOLAR CELL): ADENOMA OR ADENOCARCINOMA
  carcinogen call: active; positive
Species: MOUSE, Strain/Sex: B6C3F1/MALE, Route: ORAL, Dose: 0, 2% IN POWDERED BASAL DIET FOR 96 WK (STUDY DURATION: 96 WK)
  carcinogen call: inactive; negative
Species: RAT, Strain/Sex: F344/FEMALE, Route: ORAL, Dose: 0, 2% IN DIET FOR 104 WK (STUDY DURATION: 104 WK), Tumor Site: Type of Lesion: FORESTOMACH: PAPILLOMA, CARCINOMA
  carcinogen call: active; positive
Species: RAT, Strain/Sex: F344/FEMALE, Route: ORAL, Dose: 0, 2% IN DIET FOR 104 WK (STUDY DURATION: 104 WK), Tumor Site: Type of Lesion: FORESTOMACH: SQUAMOUS CELL CARCINOMA
  carcinogen call: active; positive
Species: RAT, Strain/Sex: F344/FEMALE, Route: ORAL, Dose: 0, 2% IN POWDERED BASAL DIET FOR 104 WK (STUDY DURATION: 104 WK), Tumor Site: Type of Lesion: FORESTOMACH: PAPILLOMA, SQUAMOUS CELL CARCINOMA
  carcinogen call: active; positive
Species: RAT, Strain/Sex: F344/MALE, Route: ORAL, Dose: 0, 0.4% IN DIET FOR DURATION OF STUDY (STUDY DURATION: 104 WK), Tumor Site: Type of Lesion: FORESTOMACH: PAPILLOMA
  carcinogen call: active; positive
Species: RAT, Strain/Sex: F344/MALE, Route: ORAL, Dose: 0, 2% IN DIET FOR 104 WK (STUDY DURATION: 104 WK), Tumor Site: Type of Lesion: FORESTOMACH: PAPILLOMA, CARCINOMA
  carcinogen call: active; positive
Species: RAT, Strain/Sex: F344/MALE, Route: ORAL, Dose: 0, 2% IN DIET FOR 104 WK (STUDY DURATION: 104 WK), Tumor Site: Type of Lesion: FORESTOMACH: SQUAMOUS CELL CARCINOMA
  carcinogen call: active; positive
Species: RAT, Strain/Sex: F344/MALE, Route: ORAL, Dose: 0, 2% IN POWDERED BASAL DIET FOR 104 WK (STUDY DURATION: 104 WK), Tumor Site: Type of Lesion: FORESTOMACH: PAPILLOMA, SQUAMOUS CELL CARCINOMA
  carcinogen call: active; positive
Species: RAT, Strain/Sex: F344/MALE, Route: ORAL, Dose: 2% IN THE DIET FOR 104 WK (STUDY DURATION: 104 WK), Tumor Site: Type of Lesion: FORESTOMACH: PAPILLOMA, SQUAMOUS CELL CARCINOMA
  carcinogen call: active; positive

## CC(N)=O
Species: RAT, Strain/Sex: WISTAR/MALE, Route: ORAL, Dose: 1.25, 2.5, 5% IN DIET FOR ONE YR, Dose: 1.25, 2.5, 5% IN DIET FOR ONE YR, Tumor Site: Type of Lesion: LIVER: TRABECULAR CARCINOMA, ADENOCARCINOMA, HEPATOMA
  carcinogen call: active; positive

## O=c1cc(CO)occ1O
Species: MOUSE, Strain/Sex: B6C3F1/FEMALE, Route: ORAL, Dose: 0, 1.5, 3% IN DIET FOR 20 MONTHS (STUDY DURATION: 20 MONTHS), Dose: 0, 1.5, 3% IN DIET FOR 20 MONTHS (STUDY DURATION: 20 MONTHS), Tumor Site: Type of Lesion: THYROID: ADENOMA. LIVER: HEPATOMA
  carcinogen call: active; positive
Species: MOUSE, Strain/Sex: B6C3F1/MALE, Route: ORAL, Dose: 0, 1.5, 3% IN DIET FOR 20 MONTHS (STUDY DURATION: 20 MONTHS), Dose: 0, 1.5, 3% IN DIET FOR 20 MONTHS (STUDY DURATION: 20 MONTHS), Tumor Site: Type of Lesion: THYROID: ADENOMA
  carcinogen call: active; positive
Species: Rat, Strain/Sex: F344/Male (20/experimental group (10 killed at 31 wk & 10 killed at 44 wk); 15/controls), Route: Oral, Dose: Kojic acid at 2.0% in drinking water for 31 wk, recovery for 13 wk, study duration 44 wk, Dose: Kojic acid at 2.0% in drinking water for 31 wk, recovery for 13 wk, study duration 44 wk, Tumor Site: Type of Lesion: Thyroid: 1 adenoma at 44 wk
  carcinogen call: inactive; negative (however, significantly greater increase in thyroid follicular cell hyp

## COC(=O)[C@H]1[C@H]2C[C@@H]3c4[nH]c5cc(OC)ccc5c4CCN3C[C@H]2C[C@@H](OC(=O)c2cc(OC)c(OC)c(OC)c2)[C@@H]1OC
Species: MOUSE, Strain/Sex: B6C3F1/FEMALE, Route: ORAL, Dose: 0, 5, 10 PPM IN DIET FOR 103 WK (STUDY DURATION: 105 WK), Dose: 0, 5, 10 PPM IN DIET FOR 103 WK (STUDY DURATION: 105 WK), Tumor Site: Type of Lesion: MAMMARY GLAND: MALIGNANT TUMOR
  carcinogen call: active; positive
Species: MOUSE, Strain/Sex: B6C3F1/MALE, Route: ORAL, Dose: 0, 5, 10 PPM IN DIET FOR 103 WK (STUDY DURATION: 105 WK), Dose: 0, 5, 10 PPM IN DIET FOR 103 WK (STUDY DURATION: 105 WK), Tumor Site: Type of Lesion: SEMINAL VESICLES: CARCINOMA
  carcinogen call: active; positive
Species: RAT, Strain/Sex: F344/FEMALE, Route: ORAL, Dose: 0, 5, 10 PPM IN DIET FOR 103 WK (STUDY DURATION: 105 WK), Dose: 0, 5, 10 PPM IN DIET FOR 103 WK (STUDY DURATION: 105 WK)
  carcinogen call: inactive; negative
Species: RAT, Strain/Sex: F344/MALE, Route: ORAL, Dose: 0, 5, 10 PPM IN DIET FOR 103 WK (STUDY DURATION: 105 WK), Dose: 0, 5, 10 PPM IN DIET FOR 103 WK (STUDY DURATION: 105 WK), Tumor Site: Type of Lesion: ADRENAL GLAND: MALIGNANT PHEOCHROMOCYTOMA OR PHEOCHROMOCYTOMA
  carcinogen call: active; positive

## COc1ccc(C)cc1N
Species: MOUSE, Strain/Sex: B6C3F1/FEMALE, Route: ORAL, Dose: 0, 0.22, 0.44% TWA, IN DIET FOR 104 WK (STUDY DURATION: 97-106 WK), Dose: 0, 0.22, 0.44% TWA, IN DIET FOR 104 WK (STUDY DURATION: 97-106 WK), Tumor Site: Type of Lesion: LIVER: HEPATOCELLULAR CARCINOMA, HEPATOCELLULAR CARCINOMA OR ADENOMA, URINARY BLADDER: TRANSITIONAL CELL CARCINOMA OR CA
  carcinogen call: active; positive
Species: MOUSE, Strain/Sex: B6C3F1/MALE, Route: ORAL, Dose: 0, 0.22, 0.46% TWA, IN DIET FOR 92-104 WK (STUDY DURATION: 92-106 WK), Dose: 0, 0.22, 0.46% TWA, IN DIET FOR 92-104 WK (STUDY DURATION: 92-106 WK), Tumor Site: Type of Lesion: URINARY BLADDER: SQUAMOUS CELL CARCINOMA OR TRANSITIONAL CELL CARCINOMA
  carcinogen call: active; positive
Species: RAT, Strain/Sex: F344/FEMALE, Route: ORAL, Dose: 0, 0.5, 1.0% IN DIET FOR 104 WK (STUDY DURATION: 106 WK), Dose: 0, 0.5, 1.0% IN DIET FOR 104 WK (STUDY DURATION: 106 WK), Tumor Site: Type of Lesion: NASAL CAVITY: OLFACTORY NEUROBLASTOMA, URINARY BLADDER: NEOPLASM (NOS) OR PAPILLARY CARCINOMA OR SQUAMOUS CELL CARCINOMA
  carcinogen call: active; positive
Species: RAT, Strain/Sex: F344/MALE, Route: ORAL, Dose: 0, 0.5, 1.0% IN DIET FOR 104 WK (STUDY DURATION: 105-106 WK), Dose: 0, 0.5, 1.0% IN DIET FOR 104 WK (STUDY DURATION: 105-106 WK), Tumor Site: Type of Lesion: NASAL CAVITY: NEUROBLASTOMA OR OLFACTORY NEUROBLASTOMA, LIVER: NEOPLASTIC NODULE OR HEPATOCELLULAR CARCINOMA OR MIXED HE
  carcinogen call: active; positive

## C=C/C=N/O
Species: HAMSTER, Strain/Sex: SYRIAN/MALE, Route: GAVAGE, Dose: 0, 2 MG/WK FOR 53 WK (STUDY DURATION: 92 WK)
  carcinogen call: inactive; negative
Species: RAT, Strain/Sex: F344/FEMALE, Route: ORAL, Dose: 0, 320 MG/L IN DRINKING WATER 5 D/WK FOR 100 WK (STUDY DURATION: 130 WK)
  carcinogen call: inactive; negative
Species: RAT, Strain/Sex: F344/FEMALE, Route: ORAL, Dose: 0, 800 MG/L IN DRINKING WATER 5 D/WK FOR 30 WK (STUDY DURATION: 130 WK)
  carcinogen call: inactive; negative
Species: RAT, Strain/Sex: F344/MALE, Route: ORAL, Dose: 0, 320 MG/L IN DRINKING WATER 5 D/WK FOR 100 WK (STUDY DURATION: 130 WK)
  carcinogen call: inactive; negative
Species: RAT, Strain/Sex: F344/MALE, Route: ORAL, Dose: 0, 800 MG/L IN DRINKING WATER 5 D/WK FOR 30 WK (STUDY DURATION: 130 WK)
  carcinogen call: inactive; negative
